Experimental data: patent publication US9353088B2, “Crystalline pharmaceutical and methods of preparation and use thereof” (SARcode Bioscience Inc., priority 2009, dated 2016)
Several values for one entry are separate records, joined by “and”; a condition that tells them apart may be missing. Equal entries are not always repeated. Where two headings read alike, the source gives them in different places.

Columns and labels:
[1] = Single dose ocular and IV ADME with [14C]-compound, whole body autoradiography; format: in vivo, rats; details: for fecal excretion of administered radioactivity: 0 to 168 hours postdose; for Concentration, Aqueous humor / Concentration, Conjunctiva (bulbar) / Concentration, Conjunctiva (palpebral) / Concentration, Cornea / Concentration, Iris-ciliary body / Concentration, Lens / Concentration, Optic Nerve / Concentration, Retina and Choroid (with RPE) / Concentration, Sclera / Concentration, Vitreous Humor: ocular dosing
[2] = Respiratory function, single IV bolus, head-out plethysmograph; format: in vivo, rats; details: any dose
[3] = In-vitro percutaneous absorption following topical application
[4] = 13-week ocular toxicity study with 4-week recovery; details: 13-week ocular (3%)
[5] = Single dose ocular tolerance; details: single dose ocular tolerance (10%)
[6] = 13-week ocular toxicity study with 4-week recovery; details: 13-week ocular (3%); remark: listed apart in the source
[7] = Pilot mini-pig dermal study; format: in vivo, mini-pigs; details: DMSO, gel, ointment, lotion at 1%, dermal TID for 7 days
[8] = Phase 1 clinical trial of Ophthalmic Solution, safety and tolerability; format: in vivo, human
Excerpt: The objectives of the trial were to measure safety and tolerability, and pharmacokinetics in tear and plasma. The dosing schedule (OU; Oculus Uterque (each eye or both eyes)) was divided into 3 periods, each separated by a 72-hour wash out interval: once/day×1 day (drug one eye; placebo fellow eye), twice/day×10 days, and thrice/day×10 days, 14-day observation. Slit lamp examination of the eye, BCVA (Best Corrected Visual Acuity), STTs (Schirmer Tear Test), TBUT (Tear Break-Up Time), IOP (Intraocular pressure) were assessed at screening and the beginning and end of each period. For each cohort, masked safety data was reviewed by a Safety Committee prior to allowing dose escalation of the next cohort. A total of 2856 doses (102 drops/subject) were administered over 1148 total subject study days (41 study days/subject) in 56 eyes. All subjects in all cohorts completed the study, and no study drug doses were missed.

[9] = system: Keratoconjunctivitis Sicca (KCS); experiment: Canine keratoconjunctivitis sicca (KCS) study; format: in vivo, dog; details: for Schirmer Tear Test (OS), Mean: Dog #7 not included
Excerpt: If dogs had been treated with topical CsA or tacrolimus in the previous six months, they were not enrolled. […] Animals were subjected to an ocular examination once during the initial visit and during five visits over sixteen weeks of the study (Weeks, 2, 4, 8, 12 and 16). The last OE was approximately four weeks after the last dose of the compound of Formula I and after one month of CsA treatment. The adnexa and anterior portions of both eyes were examined using an indirect opthalmoscope. The eyes were dilated with a mydriatic when applicable, to allow evaluation of the lens and fundus, including the retina. An evaluation using a modified McDonald-Shaddock scoring system was performed in conjunction with the slitlamp ocular examinations at each interval. Tears were measured using STT strips during the initial visit and each of the five follow-up visits on Weeks 2, 4, 8, 12 and 16. One strip of STT paper was used for each eye for each interval. […] The length, in mm, of wetting below the notch of the paper was recorded. Fluorescein and rose bengal staining was performed at the each of the initial and follow up examinations. Intraocular pressure measurements (IOPs) were performed using a Tono-Pet Vet® in conjunction with each of the OEs. Digital ocular images were taken before and after staining (with fluorescein and rose bengal) during each of the OEs. Conjunctival biopsies were taken at the initial (pretreatment) visit and the Week 12 visit. The second biopsy was taken more lateral (approx. 1 mm) to the initial biopsy. Following appropriate preparation a small conjunctival biopsy was taken from the ventral fornix of each eye.

[10] = dog, in vivo
[11] = Single dose ocular and IV ADME with [14C]-compound; format: in vivo, dogs
Excerpt: No differences in results from male and female dogs were observed.

[12] = Tear PK after single topical ocular instillation; details: single topical ocular instillation, 0.1, 1.0 or 3.0%
[13] = rabbit, in vivo
[14] = 0.5 hour, topical ocular 1 mg/eye
[15] = 0.5 hour, topical ocular 1 mg/eye, above upper limit of quantification
[16] = 8 hours postdose, topical ocular 1 mg/eye
[17] = 24 hours postdose, topical ocular 1 mg/eye
[18] = Week 1 (initial visit), individual dogs, Dog ID 1-7 = r5-r11
[19] = Week 2, individual dogs, 1% solution TID, listed as compound of Formula I
[20] = Week 4, individual dogs, 1% solution TID, listed as compound of Formula I
[21] = Week 8, individual dogs, 1% solution TID, listed as compound of Formula I
[22] = Week 12, individual dogs, 1% solution TID, listed as compound of Formula I
[23] = Week 16, individual dogs, four weeks after last dose and after one month of CsA
[24] = Weeks 1-12, individual dogs 1-7 = r6-r12
[25] = during the 12-week treatment period

CS(=O)(=O)c1cccc(C[C@H](NC(=O)c2c(Cl)cc3c(c2Cl)CCN(C(=O)c2ccc4ccoc4c2)C3)C(=O)O)c1 [Compound of Formula I]
radioactivity concentration, eye [1, 14]: 18100 ng equivalents [^14C]-compound of Formula I/g | radioactivity concentration, kidney [1, 14]: 151 ng equivalents [^14C]-compound of Formula I/g | radioactivity concentration, liver [1, 14]: 272 ng equivalents compound of Formula I/g | radioactivity concentration, uveal tract [1, 14]: 9330 ng equivalents [^14C]-compound of Formula I/g | radioactivity concentration, esophageal contents ([1]; 0.5 hour, topical ocular 1 mg/eye, male Sprague Dawley, above upper limit of quantification): 399000 ng equivalents [^14C]-compound of Formula I/g | radioactivity concentration, nasal turbinates [1, 15]: 352000 ng equivalents [^14C]-compound of Formula I/g | radioactivity concentration, small intestinal contents [1, 15]: 349000 ng equivalents [^14C]-compound of Formula I/g | radioactivity concentration, cecum contents [1, 16]: 57600 ng equivalents [^14C]-compound of Formula I/g | radioactivity concentration, large intestinal contents [1, 16]: 133000 ng equivalents [^14C]-compound of Formula I/g | radioactivity concentration, uveal tract ([1]; 12 hours postdose, topical ocular 1 mg/eye): 610 ng equivalents [^14C]-compound of Formula I/g | radioactivity concentration, cecum contents [1, 17]: 5870 ng equivalents [^14C]-compound of Formula I/g | radioactivity concentration, large intestinal contents [1, 17]: 18000 ng equivalents [^14C]-compound of Formula I/g | fecal excretion of administered radioactivity ([1]; IV administration 10 mg/kg): ~95% | decline of radioactivity concentration, esophageal contents ([1]; at 2 hours postdose): ~100 fold | decline of radioactivity concentration, esophagus ([1]; at 2 hours postdose): approximately 50 fold | levels in conjunctiva/cornea ([1]; for 16 hrs, rat): > 100 nM | fecal excretion of administered radioactivity ([1]; ocular administration 1 mg/eye): approximately 60% | Concentration, Aqueous humor ([1]; 0.5 hour after administration): 1770 ng Equivalents [^14C]-compound of Formula I/g tissue | Concentration, Conjunctiva (bulbar) ([1]; 0.5 hour after administration): 31500 ng Equivalents [^14C]-compound of Formula I/g tissue | Concentration, Conjunctiva (palpebral) ([1]; 0.5 hour after administration): 26300 ng Equivalents [^14C]-compound of Formula I/g tissue | Concentration, Cornea ([1]; 0.5 hour after administration): 17150 ng Equivalents [^14C]-compound of Formula I/g tissue | Concentration, Iris-ciliary body ([1]; 0.5 hour after administration): 17550 ng Equivalents [^14C]-compound of Formula I/g tissue | Concentration, Lens ([1]; 0.5 hour after administration): 38.8 ng Equivalents [^14C]-compound of Formula I/g tissue | Concentration, Optic Nerve ([1]; 0.5 hour after administration): 796 ng Equivalents [^14C]-compound of Formula I/g tissue | Concentration, Retina and Choroid (with RPE) ([1]; 0.5 hour after administration): 510 ng Equivalents [^14C]-compound of Formula I/g tissue | Concentration, Sclera ([1]; 0.5 hour after administration): 2750 ng Equivalents [^14C]-compound of Formula I/g tissue | Concentration, Vitreous Humor ([1]; 0.5 hour after administration): 1330 ng Equivalents [^14C]-compound of Formula I/g tissue | Concentration, Aqueous humor ([1]; 4.0 hours after administration): 116 ng Equivalents [^14C]-compound of Formula I/g tissue | Concentration, Conjunctiva (bulbar) ([1]; 4.0 hours after administration): 4480 ng Equivalents [^14C]-compound of Formula I/g tissue | Concentration, Conjunctiva (palpebral) ([1]; 4.0 hours after administration): 21830 ng Equivalents [^14C]-compound of Formula I/g tissue | Concentration, Cornea ([1]; 4.0 hours after administration): 1346 ng Equivalents [^14C]-compound of Formula I/g tissue | Concentration, Iris-ciliary body ([1]; 4.0 hours after administration): 500 ng Equivalents [^14C]-compound of Formula I/g tissue | Concentration, Lens ([1]; 4.0 hours after administration): 9.69 ng Equivalents [^14C]-compound of Formula I/g tissue | Concentration, Optic Nerve ([1]; 4.0 hours after administration): 0 ng Equivalents [^14C]-compound of Formula I/g tissue | Concentration, Retina and Choroid (with RPE) ([1]; 4.0 hours after administration): 46.7 ng Equivalents [^14C]-compound of Formula I/g tissue | Concentration, Sclera ([1]; 4.0 hours after administration): 387 ng Equivalents [^14C]-compound of Formula I/g tissue | Concentration, Vitreous Humor ([1]; 4.0 hours after administration): 183 ng Equivalents [^14C]-compound of Formula I/g tissue | Urinary excretion of administered radioactivity ([1]; ocular or IV): up to 2% | melanin binding ([1]; tissue distribution in pigmented vs albino rats): did not preferentially bind to melanin | metabolites in pooled plasma, urine and fecal homogenates ([1]; up to 168 hrs after topical ocular or IV dose): no metabolites were isolated | respiratory function (tidal volume, respiration rate, minute volume) [2]: No adverse changes in respiratory function or adverse effects | dose penetration into dermis ([3]; determined using [14C]-compound): 2-4% | compound level in dermis ([3]; skin transport studies, microtomed human skin, 1% (w/w) prototypes): greater than 10 micromolar | NOAEL [4]: 1.05 mg/eye/3× per day | NOAEL [5]: 3.5 mg/eye/3× per day | NOAEL [6]: 1.05 mg/eye/3× per day | toxicity [7]: No toxicity was reported | adverse events considered related to administration ([8]; any dose strength (0.1-5%) or dose regimen, healthy adults): No deaths, discontinuations, serious or severe ocular or non-ocular AEs | total lymphocyte, CD3, CD4, CD8 cell counts ([8]; throughout the trial): no evidence of lymphocyte or neutrophil suppression | overall safety and tolerability ([8]; topical ocular instillation, dose strengths up to 5% TID): safe and well-tolerated | Schirmer Tear Test (OS) [9]: 9 mm | Schirmer Tear Test (OS) ([9]; 672 h): 17 mm | Schirmer Tear Test (OD), Mean ([9]; Week 1 (initial visit), Dog #1 not included): 5.5 mm | Schirmer Tear Test (OS), Mean ([9]; Week 1 (initial visit)): 4.2 mm | Schirmer Tear Test (OD) [9, 18]: 8 mm (2×) and 6 mm (2×) and 15 mm and 0 mm and 5 mm | Schirmer Tear Test (OS) [9, 18]: 18 mm and 0 mm (3×) and 9 mm and 7 mm | Schirmer Tear Test (OD), Mean ([9]; Week 2, Dog #1 not included): 7.8 mm | Schirmer Tear Test (OS), Mean ([9]; Week 2): 4.8 mm | Schirmer Tear Test (OS) ([9]; Week 2, individual dogs, 1% solution TID): 4 mm | Schirmer Tear Test (OD) [9, 19]: 10 mm and 2 mm (2×) and 18 mm and 11 mm (3×) | Schirmer Tear Test (OS) [9, 19]: 0 mm (2×) and 14 mm and 3 mm and 8 mm | Schirmer Tear Test (OD), Mean ([9]; Week 4, Dog #1 not included): 7.0 mm | Schirmer Tear Test (OS), Mean ([9]; Week 4): 6.7 mm | Schirmer Tear Test (OS) ([9]; Week 4, individual dogs, 1% solution TID): 14 mm | Schirmer Tear Test (OD) [9, 20]: 15 mm and 2 mm and 12 mm and 0 mm and 5 mm and 10 mm (2×) | Schirmer Tear Test (OS) [9, 20]: 0 mm (2×) and 7 mm and 5 mm and 14 mm | Schirmer Tear Test (OD), Mean ([9]; Week 8, Dog #1 not included): 8.5 mm | Schirmer Tear Test (OS), Mean ([9]; Week 8): 6.5 mm | Schirmer Tear Test (OS) ([9]; Week 8, individual dogs, 1% solution TID): 8 mm | Schirmer Tear Test (OD) [9, 21]: 17 mm and 1 mm and 16 mm and 8 mm and 7 mm (2×) and 11 mm | Schirmer Tear Test (OS) [9, 21]: 19 mm and 0 mm and 2 mm and 17 mm and 6 mm and 8 mm | Schirmer Tear Test (OD), Mean ([9]; Week 12, Dog #1 not included): 8.8 mm | Schirmer Tear Test (OS), Mean ([9]; Week 12): 8.7 mm | Schirmer Tear Test (OS) ([9]; Week 12, individual dogs, 1% solution TID): 8 mm | Schirmer Tear Test (OD) [9, 22]: 16 mm and 0 mm and 13 mm (2×) and 8 mm and 7 mm and 9 mm | Schirmer Tear Test (OS) [9, 22]: 18 mm and 3 mm and 7 mm and 15 mm and 4 mm and 8 mm | Schirmer Tear Test (OD), Mean ([9]; Week 16, after one month of CsA, Dog #1 and anomalous Dog #5 value not included): 11.7 mm | Schirmer Tear Test (OS), Mean ([9]; Week 16, after one month of CsA): 11.0 mm | Schirmer Tear Test (OD) [9, 23]: 18 mm and 12 mm (2×) and 8 mm (3×) and 22** mm | Schirmer Tear Test (OS) [9, 23]: 18 mm and 3 mm and 5 mm and 16 mm and 7 mm and 19 mm | Maximum-Minimum analysis, Total OD ([9]; Weeks 1-12): Total = 28 | Maximum-Minimum analysis, Total OS ([9]; Weeks 1-12): Total = 44 | Maximum-Minimum analysis, maximal change in STT, OD [9, 24]: 3 and 8 (3×) and −4 and 5 | Maximum-Minimum analysis, maximal change in STT, OS [9, 24]: 7 (2×) and 11 and 3 and 10 and 6 | average STT improvement, all 12 eyes [9, 25]: 4 mm | average improvement in OD (right eye) STT [9, 25]: 3.3 mm | average improvement in OS (left eye) STT [9, 25]: 4.5 mm | Histopathological evaluation of conjunctival biopsies before and after treatment ([9]; pretreatment vs Week 12): attenuation of lymphocyte accumulation | Schirmer test scores over pretreatment ([9]; week 12): Significant improvement | level in vitreous fluid [10]: not detected | levels in conjunctiva/cornea ([11]; for 16 hrs, dog): greater than 1 micromolar | metabolites in pooled plasma, urine and fecal homogenate ([11]; up to 168 hrs post-dose): no metabolites detected | time to maximal mean tear concentration [12]: ≤ 30 min | level in vitreous fluid [13]: not detected
